Where a name gives a salt, the structure may show the parent alone.

The target in the assay is Full-length PRMT5 enzyme (NCBI Reference sequence NP_006100.2) co-expressed with His6-MEP50 (Homo sapiens (Human), UniProt O14744). Briefly: Revised PRMT5 Biochemical Assay. The conditions noted are these: 1 μM peptide substrate, 1 μM S-Adenosyl methionine, 4 hours at 37 degree Celsius, Transcreener EPIGEN fluorescence polarisation. On the procedure: Compounds of the invention may be tested for in vitro activity in the following assay: A histone H4 derived peptide is used as substrate (amino acid sequence: […]N H2). Full-length PRMT5 enzyme (NCBI Reference sequence NP_006100.2) was co-expressed with His6-MEP50 in insect cells and purified via Nickel immobilized metal affinity and gel filtration chromatography (“the enzyme”).
Sequence of Full-length PRMT5 enzyme (NCBI Reference sequence NP_006100.2) co-expressed with His6-MEP50 (O14744 whole entry): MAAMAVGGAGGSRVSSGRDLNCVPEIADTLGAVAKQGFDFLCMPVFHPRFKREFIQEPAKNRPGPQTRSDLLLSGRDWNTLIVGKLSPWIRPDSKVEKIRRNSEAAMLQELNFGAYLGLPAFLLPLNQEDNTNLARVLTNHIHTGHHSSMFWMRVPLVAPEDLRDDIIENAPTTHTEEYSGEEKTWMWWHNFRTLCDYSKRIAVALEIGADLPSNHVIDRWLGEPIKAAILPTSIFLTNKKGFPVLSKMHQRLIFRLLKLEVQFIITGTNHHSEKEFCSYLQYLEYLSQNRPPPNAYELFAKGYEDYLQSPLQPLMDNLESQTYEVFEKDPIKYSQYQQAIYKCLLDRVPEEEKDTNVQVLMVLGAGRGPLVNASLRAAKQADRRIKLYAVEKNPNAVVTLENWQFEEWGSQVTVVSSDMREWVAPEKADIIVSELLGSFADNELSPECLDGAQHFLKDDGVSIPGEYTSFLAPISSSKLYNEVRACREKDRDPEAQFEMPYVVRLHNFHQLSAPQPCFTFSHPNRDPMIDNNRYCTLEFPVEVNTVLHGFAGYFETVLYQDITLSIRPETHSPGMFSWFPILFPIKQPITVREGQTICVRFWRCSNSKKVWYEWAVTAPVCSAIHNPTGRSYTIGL
Sequence of Full-length PRMT5 enzyme (NCBI Reference sequence NP_006100.2) co-expressed with His6-MEP50 (Q9BQA1 whole entry partner): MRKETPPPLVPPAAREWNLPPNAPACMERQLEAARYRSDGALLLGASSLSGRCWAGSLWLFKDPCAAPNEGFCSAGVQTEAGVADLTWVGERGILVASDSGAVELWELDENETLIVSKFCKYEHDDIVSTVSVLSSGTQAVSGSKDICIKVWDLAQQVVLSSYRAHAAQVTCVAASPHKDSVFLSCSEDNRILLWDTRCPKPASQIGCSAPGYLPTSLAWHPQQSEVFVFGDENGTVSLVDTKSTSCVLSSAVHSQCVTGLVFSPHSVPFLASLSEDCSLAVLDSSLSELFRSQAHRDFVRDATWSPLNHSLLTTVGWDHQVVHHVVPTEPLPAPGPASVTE
The 6 μL reactions are run in Greiner brand black 384-well low volume assay plates. All reactions contained assay buffer (phosphate buffered saline, 0.01% (v/v) Tween-20, 0.01% (w/v) albumin from chicken egg white, 1 mM Dithiothreitol, 1 μM peptide substrate, 1 μM S-Adenosyl methionine, and 15 ng/reaction enzyme, with the enzyme being omitted from negative control reactions. Compounds were added in a volume of 100 nL from dilution series prepared in DMSO, positive and negative control reactions receiving the same volume DMSO without compound. The plates were sealed with adhesive seals and incubated for 4 hours at 37 degree Celsius. Reaction progress was measured using the Transcreener™ EPIGEN methyltransferase assay (BellBrook Labs, Madison, Wis.) as recommended by the manufacturer. To each reaction 2 μL detection mix were added, containing coupling enzymes, fluorescence polarisation tracer, and AMP antibody. Plates were incubated for 90 minutes before being read on a PerkinElmer EnVision™ plate reader in fluorescence polarisation mode. IC50 values were obtained from the raw readings by calculating percent inhibition (%1) for each reaction relative to controls on the same plate (% I=(I−CN)/(CP−CN) where CN/CP are the averages of the negative/positive reactions, respectively), then fitting the %1 data vs. compound concentration [I] to % I=(A+((B−A)/(1+((C/[I])^D)))) where A is the lower asymptote, B is the upper asymptote, C is the IC50 value, and D is the slope.
Background: In fluorescence polarisation assays a small probe gives low polarisation when free and higher when bound to something large.
For `O=C(NC[C@@H](O)[C@@H]1Cc2ccccc2CN1)c1cccc(C(F)F)c1` [Example 22, 3-(Difluoromethyl)-N-((R)-2-hydroxy-2-((S)-1,2,3,4-tetrahydroisoquinolin-3-yl)ethyl)benzamide], the IC50 was 2150 nM. As for `O=C(NC[C@@H](O)[C@@H]1Cc2ccccc2CN1)c1ccccc1C(F)F` [Example 23, 2-(Difluoromethyl)-N-((R)-2-hydroxy-2-((S)-1,2,3,4-tetrahydroisoquinolin-3-yl)ethyl)benzamide], the IC50 amounted to 5140 nM. Regarding `O=C(NC[C@@H](O)[C@@H]1Cc2ccccc2CN1)c1cccc(C(=O)N2CCOCC2)c1` [Example 24, N-((R)-2-Hydroxy-2-((S)-1,2,3,4-tetrahydroisoquinolin-3-yl)ethyl)-3-(morpholine-4-carbonyl)benzamide], the IC50 turned out to be 3690 nM. The value for `Cc1nnc(-c2ccc(C(=O)NC[C@@H](O)[C@@H]3Cc4ccccc4CN3)cc2)o1` [Example 25, N-((R)-2-Hydroxy-2-((S)-1,2,3,4-tetrahydroisoquinolin-3-yl)ethyl)-4-(5-methyl-1,3,4-oxadiazol-2-yl)benzamide] was 1700 nM; that for `O=C(NC[C@@H](O)[C@@H]1Cc2ccccc2CN1)c1ccc(C(=O)N2CCOCC2)cn1` [Example 29, N-((R)-2-Hydroxy-2-((S)-1,2,3,4-tetrahydroisoquinolin-3-yl)ethyl)-5-(morpholine-4-carbonyl)picolinamide dihydrochloride salt] was 535 nM; that for `O=C(NC[C@@H](O)[C@@H]1Cc2ccccc2CN1)c1ccc(C(=O)N2CCC(O)(C(F)F)CC2)cc1` [Example 30, 4-(4-(Difluoromethyl)-4-hydroxypiperidine-1-carbonyl)-N-((R)-2-hydroxy-2-((S)-1,2,3,4-tetrahydroisoquinolin-3-yl)ethyl)benzamide] was 139 nM. Turning to `O=C(NCC1CCOCC1)c1ccc(C(=O)NC[C@@H](O)[C@@H]2Cc3ccccc3CN2)cc1` [Example 31, N^1-((R)-2-Hydroxy-2-((S)-1,2,3,4-tetrahydroisoquinolin-3-yl)ethyl)-N^4-((tetrahydro-2H-pyran-4-yl)methyl)terephthalamide], the IC50 stood at 204 nM. In turn, `O=C(NC[C@@H](O)[C@@H]1Cc2ccccc2CN1)c1ccc(C(=O)N2CCC(CO)CC2)cc1` [Example 32, N-((R)-2-Hydroxy-2-((S)-1,2,3,4-tetrahydroisoquinolin-3-yl)ethyl)-4-(4-(hydroxymethyl)piperidine-1-carbonyl)benzamide] registered an IC50 of 511 nM. Turning to `CCS(=O)(=O)N1CCN(C(=O)c2ccc(C(=O)NC[C@@H](O)[C@@H]3Cc4ccccc4CN3)cc2)CC1` [Example 33, 4-(4-(Ethylsulfonyl)piperazine-1-carbonyl)-N-((R)-2-hydroxy-2-((S)-1,2,3,4-tetrahydroisoquinolin-3-yl)ethyl)benzamide], half-maximal inhibition (IC50) was put at 305 nM.

The molecule `CS(=O)(=O)N1CCC(NC(=O)c2ccc(C(=O)NC[C@@H](O)[C@@H]3Cc4ccccc4CN3)cc2)CC1` [Example 34, N^1-((R)-2-Hydroxy-2-((S)-1,2,3,4-tetrahydroisoquinolin-3-yl)ethyl)-N^4-(1-(methylsulfonyl)piperidin-4-yl)terephthalamide hydrochloride] had a concentration for half-maximal inhibition (IC50) of 1680 nM. The result for `CC(=O)N1CCC(NC(=O)c2ccc(C(=O)NC[C@@H](O)[C@@H]3Cc4ccccc4CN3)cc2)CC1` [Example 35, N^1-(1-Acetylpiperidin-4-yl)-N^4-((R)-2-hydroxy-2-((S)-1,2,3,4-tetrahydroisoquinolin-3-yl)ethyl)terephthalamide] reads 152 nM. `O=C(NC[C@@H](O)[C@@H]1Cc2ccccc2CN1)c1ccc(C(=O)N2C[C@H]3COC[C@H]3C2)cc1` [Example 36, 4-(cis-Hexahydro-1H-furo[3,4-c]pyrrole-5-carbonyl)-N-((R)-2-hydroxy-2-((S)-1,2,3,4-tetrahydroisoquinolin-3-yl)ethyl)benzamide] returned an IC50 of 148 nM. The result for `COC1CC2CCC(C1)N2C(=O)c1ccc(C(=O)NC[C@@H](O)[C@@H]2Cc3ccccc3CN2)cc1` (stereo partly drawn) [Example 38, N-((R)-2-Hydroxy-2-((S)-1,2,3,4-tetrahydroisoquinolin-3-yl)ethyl)-4-(3-methoxy-8-azabicyclo[3.2.1]octane-8-carbonyl)benzamide] reads 599 nM; that for `CC(C)N(C)C(=O)c1ccc(C(=O)NC[C@@H](O)[C@@H]2Cc3ccccc3CN2)cc1` [Example 39, N^1-((R)-2-Hydroxy-2-((S)-1,2,3,4-tetrahydroisoquinolin-3-yl)ethyl)-N^4-isopropyl-N^4-methylterephthalamide], 846 nM.

`O=C(NC[C@@H](O)[C@@H]1Cc2ccccc2CN1)c1ccc(C(=O)N2CCCOCC2)cc1` [Example 40, N-((R)-2-Hydroxy-2-((S)-1,2,3,4-tetrahydroisoquinolin-3-yl)ethyl)-4-(1,4-oxazepane-4-carbonyl)benzamide] registered an IC50 of 705 nM. In turn, `CN1CCN(C(=O)c2ccc(C(=O)NC[C@@H](O)[C@@H]3Cc4ccccc4CN3)cc2)CC1=O` [Example 41, N-((R)-2-Hydroxy-2-((S)-1,2,3,4-tetrahydroisoquinolin-3-yl)ethyl)-4-(4-methyl-3-oxopiperazine-1-carbonyl)benzamide] yielded an IC50 of 1390 nM.

`O=C(NC[C@@H](O)[C@@H]1Cc2ccccc2CN1)c1ccc(C(=O)N2C3CCC2CC(O)C3)cc1` (stereo partly drawn) [Example 42, N-((R)-2-Hydroxy-2-((S)-1,2,3,4-tetrahydroisoquinolin-3-yl)ethyl)-4-(3-hydroxy-8-azabicyclo[3.2.1]octane-8-carbonyl)benzamide] had an IC50 of 212 nM. The result for `O=C(NC[C@@H](O)[C@@H]1Cc2ccccc2CN1)c1ccc(C(=O)N2CCCC(O)C2)cc1` (stereo partly drawn) [Example 43, N-((R)-2-Hydroxy-2-((S)-1,2,3,4-tetrahydroisoquinolin-3-yl)ethyl)-4-(3-hydroxypiperidine-1-carbonyl)benzamide] reads 967 nM; that for `O=C(NC[C@@H](O)[C@@H]1Cc2ccccc2CN1)c1ccc(C(=O)NC2CCC(F)(F)CC2)cc1` [Example 44, N^1-(4,4-Difluorocyclohexyl)-N^4-((R)-2-hydroxy-2-((S)-1,2,3,4-tetrahydroisoquinolin-3-yl)ethyl)terephthalamide], 1240 nM; that for `O=C(NC[C@@H](O)[C@@H]1Cc2ccccc2CN1)c1ccc(C(=O)N2CCC(O)CC2)cc1` [Example 45, N-((R)-2-Hydroxy-2-((S)-1,2,3,4-tetrahydroisoquinolin-3-yl)ethyl)-4-(4-hydroxypiperidine-1-carbonyl)benzamide], 500 nM. The value for `O=C(NC[C@@H](O)[C@@H]1Cc2ccccc2CN1)c1ccc(C(=O)N2CCC(C(F)F)CC2)cc1` [Example 46, 4-(4-(Difluoromethyl)piperidine-1-carbonyl)-N-((R)-2-hydroxy-2-((S)-1,2,3,4-tetrahydroisoquinolin-3-yl)ethyl)benzamide] was 230 nM; that for `O=C(NC[C@@H](O)[C@@H]1Cc2ccccc2CN1)c1ccc(C(=O)N2CCC(O)C2)cc1` (stereo partly drawn) [Example 47, N-((R)-2-Hydroxy-2-((S)-1,2,3,4-tetrahydroisoquinolin-3-yl)ethyl)-4-(3-hydroxypyrrolidine-1-carbonyl)benzamide] was 3370 nM; that for `O=C(NC[C@@H](O)[C@@H]1Cc2ccccc2CN1)c1ccc(Cl)cc1` [Example 48, 4-Chloro-N—((R)-2-hydroxy-2-((S)-1,2,3,4-tetrahydroisoquinolin-3-yl)ethyl)benzamide] was 192 nM. The result for `O=C(NC[C@H](O)[C@@H]1Cc2ccccc2CN1)c1ccc(C(=O)N2CCOCC2)cc1` [Example 52, N—((S)-2-Hydroxy-2-((S)-1,2,3,4-tetrahydroisoquinolin-3-yl)ethyl)-4-(morpholine-4-carbonyl)benzamide hydrochloride] reads 3330 nM; that for `O=C(NC[C@@H](O)[C@H]1Cc2ccccc2CN1)c1ccc(C(=O)N2CCOCC2)cc1` [Example 54, N—((R)-2-Hydroxy-2-((R)-1,2,3,4-tetrahydroisoquinolin-3-yl)ethyl)-4-(morpholine-4-carbonyl)benzamide hydrochloride], 82100 nM. In turn, `O=C(NCc1ccccn1)c1ccc(C(=O)NC[C@@H](O)[C@@H]2Cc3ccccc3CN2)cc1` [Example 56, N^1-((R)-2-Hydroxy-2-((S)-1,2,3,4-tetrahydroisoquinolin-3-yl)ethyl)-N^4-(pyridin-2-ylmethly)terephthalamide] had an IC50 of 383 nM. The value for `O=C(NC[C@@H](O)[C@@H]1Cc2ccccc2CN1)c1ccc(OCC(F)(F)F)nc1` [Example 57, N-((R)-2-Hydroxy-2-((S)-1,2,3,4-tetrahydroisoquinolin-3-yl)ethyl)-6-(2,2,2-trifluoroethoxy)nicotinamide] was 594 nM; that for `O=C(NC[C@@H](O)[C@@H]1Cc2ccccc2CN1)c1ccc(OCC2CC2)nc1` [Example 58, 6-(Cyclopropylmethoxy)-N-((R)-2-hydroxy-2-((S)-1,2,3,4-tetrahydroisoquinolin-3-yl)ethyl)nicotinamide] was 657 nM.

By IC50 is commonly meant the point on the concentration scale where inhibition reaches its midpoint.

The values above are taken from patent US10494376B2, “Tetrahydroisoquinoline derived PRMT5-inhibitors” (CTXT PTY LTD, priority 2014, dated 2019).
